Values after ≈ are worked out from the molar mass of the structure shown. Where a name gives a salt, the structure may show the parent alone.
Columns and labels:
[1] = system: stationary phase S. aureus; assay: Bactericidal activity against stationary phase S. aureus (CFU counts); type: cell-based, Staphylococcus aureus; conditions: Staphylococcus aureus, read-out: Log Kill; for log reduction at 6.25 µg/mL: 6.25 μg/ml; for log reduction at 12.5 µg/mL: 12.5 μg/ml; for log reduction at 25 µg/mL: 25 μg/ml
Procedure: Staphylococcus aureus (Oxford strain); Gram positive; Reference strain.
(§1) Bacteria were grown in 10 ml of nutrient broth (No. 2 (Oxoid)) overnight at 37° C., with continuous shaking at 120 rpm. The overnight cultures were diluted (1000×) in 100 ml of growth medium and then incubated without shaking for 10 days. Viability of the bacteria was estimated by colony forming unit (CFU) counts at 2 hour intervals at the first 24 hours and at 12-24 hours afterwards. From serial 10-fold dilutions of the experimental cultures, 100 μl samples were added to triplicate plates of nutrient agar plates (Oxoid) and blood agar plates (Oxoid). Colony forming units (CFU) were counted after incubation of the plates at 37° C. for 24 hours.
(§2) Cultures incubated for more than 24 hours are in the stationary phase. For drug screening, 5-6 day old stationary phase cultures were used.
(§3) Different concentrations of each test compound were incubated with stationary phase cultures (5-6 day cultures) in 96 well plates for 24 or 48 hours. Bactericidal activity was then determined by taking CFU counts of the resulting cultures, as described above.

[2] = system: stationary phase E. coli; assay: Bactericidal activity against stationary phase E. coli (CFU counts); type: cell-based, Escherichia coli; conditions: Escherichia coli, read-out: Log kill; for log reduction at 6.25 µg/mL: 6.25 μg/ml; for log reduction at 12.5 µg/mL: 12.50 μg/ml; for log reduction at 25 µg/mL: 25.00 μg/ml
Procedure: (§4) Escherichia coli K12; Gram negative; Reference strain.
as §1, §2, §3

[3] = system: log phase E. coli; assay: MIC against log phase E. coli; type: cell-based, Escherichia coli; conditions: Escherichia coli, read-out: MIC
Procedure: as §4
The above-described overnight cultures were diluted (1000×) with iso-sensitest broth. The cultures were then incubated at 37° C. with shaking for 1-2 hours to reach log CFU 6, which served as log phase cultures.
The bactericidal activity of the drugs against log phase cultures were determined by minimal inhibitory concentration (MIC) of the drugs, which is defined as the lowest concentration which inhibits visible growth. Different concentrations of each test compound were incubated with the log-phase cultures in 96 well plates for 24 hours. Bactericidal activity was then examined by taking a spectrophotometer reading (using a plate reader) at 405 nm.

[4] = system: stationary phase P. aeruginosa; assay: Bactericidal activity against stationary phase P. aeruginosa; type: cell-based, Pseudomonas aeruginosa; conditions: for activity against stationary phase P. aeruginosa: FIG. 1
Procedure: as §1, with “Pseudomonas aeruginosa NCTC 6751; Gram negative; Reference strain. Bacteria” for “Bacteria”, “hours. Cultures incubated for more than 24 hours are in the stationary phase. For drug screening, 5-6 day old stationary phase cultures were used. Different concentrations of each test compound were incubated with stationary phase cultures (5-6 day cultures) in 96 well plates for 24 or 48 hours. Bactericidal activity was then determined by taking CFU counts of the resulting cultures, as described above.” for “hours.”

[5] = system: persistent E. coli; assay: Bactericidal activity against persistent E. coli selected by gentamicin; type: cell-based, Escherichia coli; conditions: Escherichia coli, read-out: Log Kill; for log reduction at 6.25 µg/mL: 6.25 μg/ml; for log reduction at 12.5 µg/mL: 12.5 μg/ml; for log reduction at 25 µg/mL: 25 μg/ml
Procedure: as §4
An antibiotic (gentamicin) was added to 5-6 day stationary-phase cultures to the final concentration of 50 to 100 μg/ml for 24 hours. After 24 hours of antibiotic treatment, the cells are washed 3 times with phosphate buffered saline (PBS), and then resuspended in PBS. The surviving bacterial cells are used as persisters. Viability is estimated by CFU counts. The persisters were then used in measurements of bactericidal activity for test compounds.
Different concentrations of each test compound were incubated with the (persister) cell suspension in 96 well plates for various periods of time (24 and 48 hours). Bactericidal activity was then determined by taking CFU counts of the resulting cultures, as described above.

[6] = system: NDM-1 Klebsiella pneumoniae; assay: Chequerboard analysis with colistin against NDM-1 Klebsiella pneumoniae; type: cell-based
[7] = system: clinically latent microorganisms; assay: Screening for ability to kill clinically latent microorganisms (method of WO2000028074); type: cell-based
Excerpt: International Patent Application, Publication Number WO2000028074 describes a method of screening compounds to determine their ability to kill clinically latent microorganisms. […] This observation has necessitated the development of novel antimicrobials which may be used to kill clinically latent microorganisms.
By way of example, WO2000028074 describes a suitable method of screening compounds to determine their ability to kill clinically latent microorganisms. A typical method may include the following steps: • (1) growing a bacterial culture to stationary phase; • (2) treating the stationary phase culture with one or more antimicrobial agents at a concentration and or time sufficient to kill growing bacteria, thereby selecting a phenotypically resistant sub-population; • (3) incubating a sample of the phenotypically resistant subpopulation with one or more test compounds or agents; and • (4) assessing any antimicrobial effects against the phenotypically resistant subpopulation.

## OC(c1cc(C(F)(F)F)nc2c(C(F)(F)F)cccc12)C1CCCCN1 (stereo not shown) [Mefloquine]
[1]
  log reduction at 6.25 µg/mL: -0.01
  log reduction at 12.5 µg/mL: 6.03
  log reduction at 25 µg/mL: 6.03
[2]
  log reduction at 6.25 µg/mL: 2.48
  log reduction at 12.5 µg/mL: 6.14
  log reduction at 25 µg/mL: 6.14
[3]
  MIC: 10 µg/mL (≈ 26.4 µM)
[4]; 40 μg/ml
  log reduction of the bacterium: about 1.5 log
[4]; 80 μg/ml
  organism removed: more than 10^7
[4]
  activity against stationary phase P. aeruginosa: active
[5]
  log reduction at 6.25 µg/mL: 0.02
  log reduction at 12.5 µg/mL: 0.03
  log reduction at 25 µg/mL: 6.21
[6]; mefloquine 0.25 mg/L alone
  spectrophotometer reading: 1.10
[6]; mefloquine 0.5 mg/L alone
  spectrophotometer reading: 1.08
[6]; mefloquine 1 mg/L alone
  spectrophotometer reading: 1.10
[6]; mefloquine 2 mg/L alone
  spectrophotometer reading: 1.09
[6]; mefloquine 4 mg/L alone
  spectrophotometer reading: 1.09
[6]; mefloquine 8 mg/L alone
  spectrophotometer reading: 1.15
[6]; mefloquine 16 mg/L alone
  spectrophotometer reading: 1.10
[6]; mefloquine 32 mg/L alone
  spectrophotometer reading: 0.82
[6]; mefloquine 64 mg/L alone
  spectrophotometer reading: 0.60
[6]; mefloquine 128 mg/L alone
  spectrophotometer reading: 0.33
[6]; mefloquine 256 mg/L alone
  spectrophotometer reading: 0.34

## CCCCCCCCNC(C)C(O)c1ccc(SC(C)C)cc1 (stereo not shown) [Suloctidil]
[1]
  log reduction at 6.25 µg/mL: 6.03
  log reduction at 12.5 µg/mL: 6.03
  log reduction at 25 µg/mL: 6.03
[3]
  MIC: 10 µg/mL (≈ 29.6 µM)
[4]
  activity against stationary phase P. aeruginosa: no observable activity
[5]
  log reduction at 6.25 µg/mL: 0.02
  log reduction at 12.5 µg/mL: 0.02
  log reduction at 25 µg/mL: 6.21
[6]; suloctidil 0.25 mg/L alone
  spectrophotometer reading: 0.97
[6]; suloctidil 0.5 mg/L alone
  spectrophotometer reading: 1.03
[6]; suloctidil 1 mg/L alone
  spectrophotometer reading: 0.98
[6]; suloctidil 2 mg/L alone
  spectrophotometer reading: 0.93
[6]; suloctidil 4 mg/L alone
  spectrophotometer reading: 0.94
[6]; suloctidil 8 mg/L alone
  spectrophotometer reading: 0.70
[6]; suloctidil 16 mg/L alone
  spectrophotometer reading: 0.60
[6]; suloctidil 32 mg/L alone
  spectrophotometer reading: 0.60
[6]; suloctidil 64 mg/L alone
  spectrophotometer reading: 0.38
[6]; suloctidil 128 mg/L alone
  spectrophotometer reading: 0.44
[6]; suloctidil 256 mg/L alone
  spectrophotometer reading: 0.61

## CSc1ccc2c(c1)N(CCC1CCCCN1C)c1ccccc1S2 (stereo not shown) [Thioridazine hydrochloride]
[1]
  log reduction at 6.25 µg/mL: 6.03
  log reduction at 12.5 µg/mL: 6.03
  log reduction at 25 µg/mL: 6.03
[2]
  log reduction at 6.25 µg/mL: 6.14
  log reduction at 12.5 µg/mL: 6.14
  log reduction at 25 µg/mL: 6.14
[3]
  MIC: 10 µg/mL
[5]
  log reduction at 6.25 µg/mL: 0.04
  log reduction at 12.5 µg/mL: 0.03
  log reduction at 25 µg/mL: 6.21
[6]; thioridazine hydrochloride 0.25 mg/L alone
  spectrophotometer reading: 0.98
[6]; thioridazine hydrochloride 0.5 mg/L alone
  spectrophotometer reading: 0.97
[6]; thioridazine hydrochloride 1 mg/L alone
  spectrophotometer reading: 0.97
[6]; thioridazine hydrochloride 2 mg/L alone
  spectrophotometer reading: 0.96
[6]; thioridazine hydrochloride 4 mg/L alone
  spectrophotometer reading: 0.96
[6]; thioridazine hydrochloride 8 mg/L alone
  spectrophotometer reading: 0.96
[6]; thioridazine hydrochloride 16 mg/L alone
  spectrophotometer reading: 0.96
[6]; thioridazine hydrochloride 32 mg/L alone
  spectrophotometer reading: 0.93
[6]; thioridazine hydrochloride 64 mg/L alone
  spectrophotometer reading: 0.73
[6]; thioridazine hydrochloride 128 mg/L alone
  spectrophotometer reading: 0.76
[6]; thioridazine hydrochloride 256 mg/L alone
  spectrophotometer reading: 1.41

## CN(C)CCCN1c2ccccc2Sc2ccc(C(F)(F)F)cc21 [Triflupromazine hydrochloride]
[1]
  log reduction at 6.25 µg/mL: 6.15
  log reduction at 12.5 µg/mL: 6.15
  log reduction at 25 µg/mL: 6.15
[2]
  log reduction at 6.25 µg/mL: 2.1
  log reduction at 12.5 µg/mL: 6.14
  log reduction at 25 µg/mL: 6.14
[3]
  MIC: 10 µg/mL
[5]
  log reduction at 6.25 µg/mL: 0.03
  log reduction at 12.5 µg/mL: 2.34
  log reduction at 25 µg/mL: 6.21
[6]; triflupromazine 0.25 mg/L alone
  spectrophotometer reading: 1.11
[6]; triflupromazine 0.5 mg/L alone
  spectrophotometer reading: 1.13
[6]; triflupromazine 1 mg/L alone
  spectrophotometer reading: 1.14
[6]; triflupromazine 2 mg/L alone
  spectrophotometer reading: 1.13
[6]; triflupromazine 4 mg/L alone
  spectrophotometer reading: 1.14
[6]; triflupromazine 8 mg/L alone
  spectrophotometer reading: 1.17
[6]; triflupromazine 16 mg/L alone
  spectrophotometer reading: 1.11
[6]; triflupromazine 32 mg/L alone
  spectrophotometer reading: 1.08
[6]; triflupromazine 64 mg/L alone
  spectrophotometer reading: 0.73
[6]; triflupromazine 128 mg/L alone
  spectrophotometer reading: 0.76
[6]; triflupromazine 256 mg/L alone
  spectrophotometer reading: 0.41

## CC[C@H]1OC(=O)[C@H](C)[C@@H](O[C@H]2C[C@@](C)(OC)[C@@H](O)[C@H](C)O2)[C@H](C)[C@@H](O[C@@H]2O[C@H](C)C[C@H](N(C)C)[C@H]2O)[C@](C)(O)C[C@@H](C)CN(C)[C@H](C)[C@@H](O)[C@]1(C)O [azithromycin]
[7]
  activity against clinically latent microorganisms: little or no activity

## CC(=O)NC[C@H]1CN(c2ccc(N3CCOCC3)c(F)c2)C(=O)O1 [linezolid]
[7]
  activity against clinically latent microorganisms: little or no activity

## C/C(=C\C(=O)OCCCCCCCCC(=O)O)C[C@@H]1OC[C@H](C[C@@H]2O[C@H]2[C@@H](C)[C@H](C)O)[C@@H](O)[C@H]1O [mupirocin]
[7]
  activity against clinically latent microorganisms: little or no activity

Source: patent US9549965B2, “Pharmaceutical composition for treating a microbial infection” (HELPERBY THERAPEUTICS LIMITED, priority 2010, dated 2017)
